Experiments:
Assay type in all cases: biochemical
KDR = KDR (Homo sapiens, UniProt P35968); assay: KDR HTRF in vitro kinase assay; set-up: purified enzyme (His6-KDR 789-1354, MW 63 kD); His6 (N); conditions: 1 mM ATP; read-out: KDR enzyme inhibition data (Ki)
Description: To determine the activity of the various kinases, a homogenous time-resolved fluorescence (HTRF) in vitro kinase assay was used. (Mathis, G., HTRF® Technology. J Biomol Screen, 1999. 4(6): p. 309-314; Alfred J. Kolb, Paul V. Kaplita, David J. Hayes, Young-Whan Park, Christine Pernell, John S. Major and Gerard Mathis, Drug Discovery Today, 1998, 3, 333-342.)
For example for KDR, 7 ng/well of purified enzyme (His6-KDR 789-1354, MW 63 kD) was mixed with 0.5 μM N-biotinylated substrate (Biotin-Ahx-AEEEYFFLA-amide (SEQ. ID. 1)), various concentrations of inhibitor in reaction buffer (50 mM HEPES, pH 7.1, 10 mM MgCl2, 2 mM MnCl2, 0.1% BSA and 1 mM DTT, 40 L final volume), ATP (1 mM final conc.) in a black 384-well plate. After 60 minutes incubation at room temperature, the reaction was quenched by addition of a buffered EDTA solution (final approximate concentrations: 30 mM EDTA, 0.1% BSA, 0.1% Triton X-100 and 0.24M KF) and a solution of revelation agents (to give 0.084 ng/well streptavidin-XL-665 (Cis-Bio) and 6.5 ng/well antiphsophotyrosine mAb PT66-K Europium kryptate) was added to the reaction mixture. The quenched reaction was allowed to stand at room temperature for 3 hours and was then read in a time-resolved fluorescence detector (InVision, Perkin-Elmer) at 620 nm and 665 nm sequentially with excitation. The ratio between the signal of 620 nm and 665 nm was used in the calculation of the IC50.

Aurora A = biological target: T1, Aurora A (Homo sapiens, UniProt O14965); assay: Aurora A enzyme inhibition (time-resolved fluorescence, STK substrate-2); conditions: 1 mM ATP
T1 sequence (O14965 1-403): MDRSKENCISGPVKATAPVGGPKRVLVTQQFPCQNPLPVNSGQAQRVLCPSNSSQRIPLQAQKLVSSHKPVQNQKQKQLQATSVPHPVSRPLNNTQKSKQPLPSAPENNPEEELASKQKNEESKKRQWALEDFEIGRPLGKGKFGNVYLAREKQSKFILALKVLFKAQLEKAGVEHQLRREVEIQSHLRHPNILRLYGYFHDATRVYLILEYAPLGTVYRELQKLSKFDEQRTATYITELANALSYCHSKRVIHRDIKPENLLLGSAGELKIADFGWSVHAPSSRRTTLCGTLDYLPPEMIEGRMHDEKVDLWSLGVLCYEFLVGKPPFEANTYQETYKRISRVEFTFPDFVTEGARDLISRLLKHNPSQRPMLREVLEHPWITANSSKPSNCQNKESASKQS
Description: To determine Aurora A and C activity of representative compounds of the invention, Active Aurora A or C enzyme was incubated in wells of a 384 well plate with biotinylated STK substrate-2 (Upstate), 1 mM ATP, and various concentrations of inhibitors in a Hepes buffer, pH 7.4 containing MgCl2, sodium othrovanadate, and Triton X-100. After 1 hour, the reaction was stopped with EDTA and anti-phospho-STK antibody Europium Cryptate (Upstate) and SA-XL665 (Upstate) were added to detect the phosphopeptide. The amount of phosphorylation was determined by the time-resolved fluorescence ratio of signals at 665 nm and 615 nm. The IC50s were calculated by an exponential fit of the inhibition values with the inhibitor concentrations using Assay Explorer software.

Aurora B = biological target: T2, Aurora B (Homo sapiens, UniProt Q96GD4); assay: Aurora B enzyme inhibition (time-resolved fluorescence, histone H3 peptide); conditions: 1 mM ATP
T2 construct: Active Aurora B enzyme (recombinant residues 1-344)
Description: To determine Aurora B activity of representative compounds of the invention, Active Aurora B enzyme (recombinant residues 1-344) and INCENP (recombinant GST fusion protein (Upstate)) were incubated in wells of a 384 well plate with biotinylated histone H3 peptide residues 1-21 (Upstate), 1 mM ATP, and various concentrations of inhibitors in a HEPES buffer, pH 7.4 containing MgCl2, sodium othrovanadate, and Triton X-100. After 1 hour, the reaction was stopped with EDTA and anti-phospho-histone H3 Europium Cryptate (Cis-Bio) and SA-APC (Phycolink, Prozyme) were added to detect the phosphopeptide. The amount of phosphorylation was determined by the time-resolved fluorescence ratio of signals at 665 nm and 615 nm. The IC50's were calculated by an exponential fit of the inhibition values with the inhibitor concentrations using Assay Explorer software.

KDR, sequence (P35968 789-1354): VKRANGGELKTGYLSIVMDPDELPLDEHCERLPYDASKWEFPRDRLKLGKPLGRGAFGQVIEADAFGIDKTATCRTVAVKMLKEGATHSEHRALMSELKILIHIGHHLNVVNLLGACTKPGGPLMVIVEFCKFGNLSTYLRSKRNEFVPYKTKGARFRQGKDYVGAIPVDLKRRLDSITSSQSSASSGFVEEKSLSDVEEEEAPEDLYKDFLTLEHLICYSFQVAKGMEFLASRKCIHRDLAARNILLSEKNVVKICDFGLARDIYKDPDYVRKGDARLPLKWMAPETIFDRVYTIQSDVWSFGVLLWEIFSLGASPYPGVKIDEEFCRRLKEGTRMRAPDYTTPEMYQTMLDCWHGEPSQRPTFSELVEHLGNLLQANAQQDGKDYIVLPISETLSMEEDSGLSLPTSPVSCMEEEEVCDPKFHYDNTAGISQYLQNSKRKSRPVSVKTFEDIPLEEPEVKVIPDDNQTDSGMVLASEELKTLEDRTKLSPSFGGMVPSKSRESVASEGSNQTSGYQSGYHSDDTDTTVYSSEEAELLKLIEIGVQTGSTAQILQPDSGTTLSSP
T2 sequence (Q96GD4 whole entry, the tested form may be a part): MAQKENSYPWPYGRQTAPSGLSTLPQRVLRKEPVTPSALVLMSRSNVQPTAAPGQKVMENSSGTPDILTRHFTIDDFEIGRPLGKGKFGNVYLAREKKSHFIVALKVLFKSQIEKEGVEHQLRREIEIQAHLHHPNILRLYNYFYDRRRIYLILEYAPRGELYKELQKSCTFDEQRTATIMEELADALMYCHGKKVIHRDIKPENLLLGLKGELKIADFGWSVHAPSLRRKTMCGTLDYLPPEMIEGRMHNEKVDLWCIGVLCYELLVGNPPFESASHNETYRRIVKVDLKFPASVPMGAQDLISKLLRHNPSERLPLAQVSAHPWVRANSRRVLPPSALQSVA
T2 sequence (Q9NQS7 826-918 partner limits assumed): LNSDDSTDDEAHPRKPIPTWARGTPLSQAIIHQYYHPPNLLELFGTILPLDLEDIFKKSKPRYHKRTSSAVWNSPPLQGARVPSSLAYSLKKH

SMILES | Ki (KDR) | Ki (Aurora A) | Ki (Aurora B)
CCn1cc(Nc2ncc(Cl)c(N[C@@H]3[C@H]4CC[C@H](C4)[C@@H]3C(N)=O)n2)cn1.CCn1cc(Nc2ncc(Cl)c(N[C@H]3[C@@H]4CC[C@@H](C4)[C@H]3C(N)=O)n2)cn1 (mixture of isomers) [Example 57, (1R,2S,3R,4S)-3-({5-chloro-2-[(1-ethyl-1H-pyrazol-4-yl)amino]pyrimidin-4-yl}amino)bicyclo[2.2.1]heptane-2-carboxamide and (1S,2R,3S,4R)-3-({5-chloro-2-[(1-ethyl-1H-pyrazol-4-yl)amino]pyrimidin-4-yl}amino)bicyclo[2.2.1]heptane-2-carboxamide] | < 100 nM | < 100 nM | < 100 nM
CN(C)C(=O)Cn1cc(Nc2ncc(Cl)c(N[C@@H]3[C@H]4CC[C@H](C4)[C@@H]3C(N)=O)n2)cn1.CN(C)C(=O)Cn1cc(Nc2ncc(Cl)c(N[C@H]3[C@@H]4CC[C@@H](C4)[C@H]3C(N)=O)n2)cn1 (mixture of isomers) [Example 58, (1R,2S,3R,4S)-3-{[5-chloro-2-({1-[2-(dimethylamino)-2-oxoethyl]-1H-pyrazol-4-yl}amino)pyrimidin-4-yl]amino}bicyclo[2.2.1]heptane-2-carboxamide and (1S,2R,3S,4R)-3-{[5-chloro-2-({1-[2-(dimethylamino)-2-oxoethyl]-1H-pyrazol-4-yl}amino)pyrimidin-4-yl]amino}bicyclo[2.2.1]heptane-2-carboxamide] | < 100 nM | < 100 nM | < 100 nM
Cn1cc(Nc2ncc(C(F)(F)F)c(N[C@@H]3[C@H](C(=O)NCCO)[C@H]4C=C[C@@H]3C4)n2)cn1.Cn1cc(Nc2ncc(C(F)(F)F)c(N[C@H]3[C@@H](C(=O)NCCO)[C@@H]4C=C[C@H]3C4)n2)cn1 (mixture of isomers) [Example 67, (1S,2S,3R,4R)—N-(2-hydroxyethyl)-3-{[2-[(1-methyl-1H-pyrazol-4-yl)amino]-5-(trifluoromethyl)pyrimidin-4-yl]amino}bicyclo[2.2.1]hept-5-ene-2-carboxamide and (1R,2R,3S,4S)—N-(2-hydroxyethyl)-3-{[2-[(1-methyl-1H-pyrazol-4-yl)amino]-5-(trifluoromethyl)pyrimidin-4-yl]amino}bicyclo[2.2.1]hept-5-ene-2-carboxamide] | < 100 nM | < 100 nM | < 100 nM
NC(=O)[C@@H]1[C@H](Nc2nc(Nc3cnn(CCN4CCCC4)c3)ncc2Cl)[C@H]2C=C[C@@H]1C2 (racemic) [Example 34, (1S,2S,3R,4R)-3-[(5-chloro-2-{[1-(2-pyrrolidin-1-ylethyl)-1H-pyrazol-4-yl]amino}pyrimidin-4-yl)amino]bicyclo[2.2.1]hept-5-ene-2-carboxamide and (1R,2R,3S,4S)-3-[(5-chloro-2-{[1-(2-pyrrolidin-1-ylethyl)-1H-pyrazol-4-yl]amino}pyrimidin-4-yl)amino]bicyclo[2.2.1]hept-5-ene-2-carboxamide] | < 100 nM | < 100 nM | < 100 nM
CCN(CC)CCn1cc(Nc2ncc(Cl)c(N[C@H]3[C@@H](C(N)=O)[C@@H]4C=C[C@H]3C4)n2)cn1 (racemic) [Example 35, (1S,2S,3R,4R)-3-{[5-chloro-2-({1-[2-(diethylamino)ethyl]-1H-pyrazol-4-yl}amino)pyrimidin-4-yl]amino}bicyclo[2.2.1]hept-5-ene-2-carboxamide and (1R,2R,3S,4S)-3-{[5-chloro-2-({1-[2-(diethylamino)ethyl]-1H-pyrazol-4-yl}amino)pyrimidin-4-yl]amino}bicyclo[2.2.1]hept-5-ene-2-carboxamide] | < 100 nM | < 100 nM | < 100 nM

More lines, now with the values ahead:

Ki (KDR) | Ki (Aurora A) | Ki (Aurora B) | SMILES
< 100 nM | < 100 nM | < 100 nM | NC(=O)[C@@H]1[C@H]2CC[C@H](C2)[C@@H]1Nc1nc(Nc2cnn(CCO)c2)ncc1Cl.NC(=O)[C@H]1[C@@H]2CC[C@@H](C2)[C@H]1Nc1nc(Nc2cnn(CCO)c2)ncc1Cl (mixture of isomers) [Example 59, (1R,2S,3R,4S)-3-[(5-chloro-2-{[1-(2-hydroxyethyl)-1H-pyrazol-4-yl]amino}pyrimidin-4-yl)amino]bicyclo[2.2.1]heptane-2-carboxamide and (1S,2R,3S,4R)-3-[(5-chloro-2-{[1-(2-hydroxyethyl)-1H-pyrazol-4-yl]amino}pyrimidin-4-yl)amino]bicyclo[2.2.1]heptane-2-carboxamide]
< 100 nM | < 100 nM | < 100 nM | NC(=O)[C@@H]1[C@H]2CC[C@H](C2)[C@@H]1Nc1nc(Nc2cnn(CCN3CCOCC3)c2)ncc1Cl.NC(=O)[C@H]1[C@@H]2CC[C@@H](C2)[C@H]1Nc1nc(Nc2cnn(CCN3CCOCC3)c2)ncc1Cl (mixture of isomers) [Example 60, (1R,2S,3R,4S)-3-[(5-chloro-2-{[1-(2-morpholin-4-ylethyl)-1H-pyrazol-4-yl]amino}pyrimidin-4-yl)amino]bicyclo[2.2.1]heptane-2-carboxamide and (1S,2R,3S,4R)-3-[(5-chloro-2-{[1-(2-morpholin-4-ylethyl)-1H-pyrazol-4-yl]amino}pyrimidin-4-yl)amino]bicyclo[2.2.1]heptane-2-carboxamide]
< 100 nM | < 100 nM | < 100 nM | CCn1cc(Nc2ncc(C(F)(F)F)c(N[C@@H]3[C@H](C(=O)NCCO)[C@H]4C=C[C@@H]3C4)n2)cn1.CCn1cc(Nc2ncc(C(F)(F)F)c(N[C@H]3[C@@H](C(=O)NCCO)[C@@H]4C=C[C@H]3C4)n2)cn1 (mixture of isomers) [Example 68, (1S,2S,3R,4R)-3-{[2-[(1-ethyl-1H-pyrazol-4-yl)amino]-5-(trifluoromethyl)pyrimidin-4-yl]amino}-N-(2-hydroxyethyl)bicyclo[2.2.1]hept-5-ene-2-carboxamide and (1R,2R,3S,4S)-3-{[2-[(1-ethyl-1H-pyrazol-4-yl)amino]-5-(trifluoromethyl)pyrimidin-4-yl]amino}-N-(2-hydroxyethyl)bicyclo[2.2.1]hept-5-ene-2-carboxamide]
< 100 nM | < 100 nM | < 100 nM | CCn1cc(Nc2ncc(C(F)(F)F)c(N[C@@H]3[C@H](C(=O)NC4CC4)[C@H]4C=C[C@@H]3C4)n2)cn1.CCn1cc(Nc2ncc(C(F)(F)F)c(N[C@H]3[C@@H](C(=O)NC4CC4)[C@@H]4C=C[C@H]3C4)n2)cn1 (mixture of isomers) [Example 71, (1S,2S,3R,4R)—N-cyclopropyl-3-{[2-[(1-ethyl-1H-pyrazol-4-yl)amino]-5-(trifluoromethyl)pyrimidin-4-yl]amino}bicyclo[2.2.1]hept-5-ene-2-carboxamide and (1R,2R,3S,4S)—N-cyclopropyl-3-{[2-[(1-ethyl-1H-pyrazol-4-yl)amino]-5-(trifluoromethyl)pyrimidin-4-yl]amino}bicyclo[2.2.1]hept-5-ene-2-carboxamide]
